These results are taken from ChEMBL document CHEMBL1909046, “DrugMatrix in vitro pharmacology data”.

In general, pIC50 refers to −log10 of the IC50, conventionally taken in molar units. A word on the pKi: it is the Ki on a negative log10 scale, so that one unit is a factor of ten.

Assay [1] addresses 5-hydroxytryptamine receptor 4 (Cavia porcellus, UniProt O70528). Format: cell membranes, Dunkin-Hartley, Striatum, Membrane.
Assay [2] in a line: DRUGMATRIX: Glutamate, NMDA, Phencyclidine radioligand binding (ligand: [3H] TCP). Format: cell membranes, Rattus norvegicus, Wistar, Cerebral cortex, Membrane. Particulars: Not Active = under 50% inhibition at 10 µM.
The nature of assay [3]: DRUGMATRIX: GABAA, Muscimol, Central radioligand binding (ligand: [3H] Muscimol). It is filed as cell membranes, Rattus norvegicus, Wistar, Brain, Membrane. To be noted: Not Active = under 50% inhibition at 10 µM.
Assay [4] deals with T1, Cysteinyl leukotriene receptor 1 (Homo sapiens, UniProt Q9Y271).
T1 sequence (Q9Y271 whole entry): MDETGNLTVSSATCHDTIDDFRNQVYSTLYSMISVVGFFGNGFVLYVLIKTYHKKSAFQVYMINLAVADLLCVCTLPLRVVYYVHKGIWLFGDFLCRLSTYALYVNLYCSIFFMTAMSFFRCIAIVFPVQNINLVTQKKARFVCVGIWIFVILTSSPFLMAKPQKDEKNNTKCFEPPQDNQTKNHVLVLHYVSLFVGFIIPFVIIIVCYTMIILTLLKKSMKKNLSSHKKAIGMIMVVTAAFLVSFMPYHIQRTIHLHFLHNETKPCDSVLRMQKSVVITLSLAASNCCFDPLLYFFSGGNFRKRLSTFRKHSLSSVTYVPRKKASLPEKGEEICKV
It is filed as cell membranes, CHO-K1, Membrane. Particulars: cho-k1.

In another assay the target is Histamine H2 receptor (Homo sapiens, UniProt P25021). It is filed as cell membranes, CHO-K1, Membrane. To be noted: for IC50: cho-k1. On all read-outs here: in other assays of this panel Not Active means under 50% inhibition at 10 µM.
Chain of Histamine H2 receptor (P25021 whole entry): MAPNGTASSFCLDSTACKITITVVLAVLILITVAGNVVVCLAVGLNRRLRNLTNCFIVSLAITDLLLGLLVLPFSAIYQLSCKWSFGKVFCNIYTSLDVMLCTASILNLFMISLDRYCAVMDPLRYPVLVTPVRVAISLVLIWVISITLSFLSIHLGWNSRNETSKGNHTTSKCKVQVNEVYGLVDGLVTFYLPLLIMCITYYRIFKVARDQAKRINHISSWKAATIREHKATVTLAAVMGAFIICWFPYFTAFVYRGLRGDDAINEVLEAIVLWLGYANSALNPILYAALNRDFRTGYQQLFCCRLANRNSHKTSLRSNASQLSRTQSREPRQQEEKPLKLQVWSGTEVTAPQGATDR
Assay [5] in a line: DRUGMATRIX: Phosphodiesterase PDE3 enzyme inhibition (substrate: [3H]cAMP + cAMP). It is filed as tissue-based, Homo sapiens. To be noted: platelet, Not Active = under 50% inhibition at 10 µM.
The target of assay [6] is T2, Angiotensin-converting enzyme (Oryctolagus cuniculus, UniProt P12822).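 Further: enzymatic inhibition of angiotensin-converting enzyme measured with FAPGG as the substrate; in other assays of this panel Not Active means under 50% inhibition at 10 µM.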
T2 sequence (P12822 whole entry): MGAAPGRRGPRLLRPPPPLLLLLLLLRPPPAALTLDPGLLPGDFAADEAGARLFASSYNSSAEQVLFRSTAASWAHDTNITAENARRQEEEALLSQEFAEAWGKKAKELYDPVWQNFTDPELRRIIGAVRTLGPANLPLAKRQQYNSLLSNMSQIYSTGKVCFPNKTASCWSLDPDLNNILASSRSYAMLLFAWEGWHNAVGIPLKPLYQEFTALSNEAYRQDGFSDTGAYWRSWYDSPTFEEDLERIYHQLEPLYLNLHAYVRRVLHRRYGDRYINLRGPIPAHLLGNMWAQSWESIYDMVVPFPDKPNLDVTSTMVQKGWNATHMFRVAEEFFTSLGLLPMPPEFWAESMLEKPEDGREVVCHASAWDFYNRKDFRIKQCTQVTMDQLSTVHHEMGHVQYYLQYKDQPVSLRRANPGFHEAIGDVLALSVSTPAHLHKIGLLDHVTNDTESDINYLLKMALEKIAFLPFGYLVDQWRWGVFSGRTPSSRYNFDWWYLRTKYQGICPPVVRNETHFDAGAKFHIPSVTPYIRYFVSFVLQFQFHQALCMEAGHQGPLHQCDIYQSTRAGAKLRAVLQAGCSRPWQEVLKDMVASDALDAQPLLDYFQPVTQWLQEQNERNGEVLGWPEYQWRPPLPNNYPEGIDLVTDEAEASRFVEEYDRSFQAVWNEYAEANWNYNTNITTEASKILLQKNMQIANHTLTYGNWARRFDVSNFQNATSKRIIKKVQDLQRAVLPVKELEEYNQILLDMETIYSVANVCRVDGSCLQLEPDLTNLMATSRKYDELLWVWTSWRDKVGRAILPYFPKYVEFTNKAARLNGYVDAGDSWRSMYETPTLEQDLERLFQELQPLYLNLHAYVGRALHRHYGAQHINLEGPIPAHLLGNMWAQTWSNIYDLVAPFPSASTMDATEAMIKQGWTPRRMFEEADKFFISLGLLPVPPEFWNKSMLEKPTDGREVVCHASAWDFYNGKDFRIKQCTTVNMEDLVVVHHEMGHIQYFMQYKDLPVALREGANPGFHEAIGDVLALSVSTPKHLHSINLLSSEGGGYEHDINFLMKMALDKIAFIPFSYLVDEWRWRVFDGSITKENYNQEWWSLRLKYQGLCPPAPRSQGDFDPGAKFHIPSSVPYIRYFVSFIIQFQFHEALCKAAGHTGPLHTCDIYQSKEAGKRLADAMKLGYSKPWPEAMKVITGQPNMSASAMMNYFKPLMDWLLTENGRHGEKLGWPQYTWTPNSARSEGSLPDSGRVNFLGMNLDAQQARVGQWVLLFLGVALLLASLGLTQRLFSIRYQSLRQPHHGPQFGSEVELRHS
In words: biochemical. It is filed as tissue-based, Lung.

pIC50, pKi: −log10 of the molar value.

Chain of 5-hydroxytryptamine receptor 4 (O70528 whole entry): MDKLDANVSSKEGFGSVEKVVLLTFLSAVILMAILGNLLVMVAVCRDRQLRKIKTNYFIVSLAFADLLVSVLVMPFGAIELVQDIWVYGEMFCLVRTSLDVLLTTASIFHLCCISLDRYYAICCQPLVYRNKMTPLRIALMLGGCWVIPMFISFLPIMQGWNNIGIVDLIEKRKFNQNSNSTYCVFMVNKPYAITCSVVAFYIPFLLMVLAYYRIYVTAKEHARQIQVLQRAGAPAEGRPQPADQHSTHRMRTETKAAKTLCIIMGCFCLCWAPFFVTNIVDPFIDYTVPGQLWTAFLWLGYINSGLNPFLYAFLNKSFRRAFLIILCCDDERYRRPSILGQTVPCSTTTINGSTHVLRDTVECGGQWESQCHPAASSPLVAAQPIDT

For the molecule `Cc1cnc(NC(=O)C2=C(O)c3ccccc3S(=O)(=O)N2C)s1` [MELOXICAM], the IC50 entry (in assay [1]; in assay [2]; in assay [3]; in assay [4]; against Histamine H2 receptor; in assay [5]) was “Not Active” throughout. Also, in assay [6], the IC50 entry was “Not Active”. Besides, the Ki entry in assay [2], in assay [3] and in assay [5] was “Not Active” throughout.
With `Nc1nc(N)c2nc(-c3ccccc3)c(N)nc2n1`, the IC50 entry (in assay [1]; in assay [2]; in assay [3]; in assay [4]; on Histamine H2 receptor; in assay [5]) was “Not Active” throughout. Moreover, the IC50 entry in assay [6] was “Not Active”. Moreover, the Ki entry in assay [2], in assay [3] and in assay [5] was “Not Active” in each case.
Consider `CC(C)(C)NC[C@H](O)COc1cccc2c1CCCC2=O` [LEVOBUNOLOL], for which the IC50 result (in assay [1]; in assay [2]; in assay [3]; in assay [4]; at Histamine H2 receptor; in assay [5]) was “Not Active” each time. In addition, the IC50 entry in assay [6] was “Not Active”. Besides, the Ki entry in assay [2], in assay [3] and in assay [5] was “Not Active” each time.
On to `Cc1[nH]c(=O)c(C#N)cc1-c1ccncc1` [MILRINONE], for which the IC50 result (in assay [1]; in assay [2]; in assay [3]; in assay [4]; against Histamine H2 receptor; in assay [6]) was “Not Active” in each case. Besides, the Ki result in assay [2] and in assay [3] was “Not Active” in each case. For the same molecule, the pIC50 in assay [5] (read-out: IC50) was 6.02.
As to `Cc1cn([C@H]2C=C[C@@H](CO)O2)c(=O)[nH]c1=O` [STAVUDINE], the IC50 result (in assay [1]; in assay [2]; in assay [3]; in assay [4]; at Histamine H2 receptor; in assay [5]) was “Not Active” in each case. In addition, the IC50 result in assay [6] is “Not Active”. Moreover, the Ki entry in assay [2], in assay [3] and in assay [5] was “Not Active” in each case.
For `CCOc1cc(N)c(Cl)cc1C(=O)NCC1CN(Cc2ccc(F)cc2)CCO1` (configuration not stated) [MOSAPRIDE], the negative logarithm of the IC50 (pIC50) in assay [1] (read-out: IC50) was 6.05. Also, in assay [1] (read-out: Ki), the negative logarithm of the Ki (pKi) was 6.83. The IC50 entry (in assay [2]; in assay [3]; in assay [4]; against Histamine H2 receptor; in assay [5]; in assay [6]) was “Not Active” throughout. For the same molecule, the Ki result in assay [2], in assay [3] and in assay [5] was “Not Active” throughout.
As to `C#C[C@]1(O)CC[C@H]2[C@@H]3[C@H](C)CC4=C(CCC(=O)C4)[C@H]3CC[C@@]21C` [TIBOLONE], the IC50 result (in assay [1]; in assay [2]; in assay [3]; in assay [4]; against Histamine H2 receptor; in assay [5]) was “Not Active” in each case. For the same molecule, the IC50 entry in assay [6] is recorded as “Not Active”. Also, the Ki result in assay [2], in assay [3] and in assay [5] was “Not Active” each time.
Take `CC[C@H](C)[C@@H](CO[C@@H](Cc1ccccc1)C(=O)N[C@@H](CCS(C)(=O)=O)C(=O)OC(C)C)NC[C@@H](N)CS`: the IC50 entry (in assay [1]; in assay [2]; in assay [3]; in assay [4]; at Histamine H2 receptor; in assay [5]) was “Not Active” each time. Also, the IC50 entry in assay [6] is “Not Active”. Also, the Ki result in assay [2], in assay [3] and in assay [5] was “Not Active” in each case.
For `OC[C@@H](O)[C@@H](O)[C@H](O)[C@H](O)CO` [MANNITOL], the IC50 entry (in assay [1]; in assay [2]; in assay [3]; in assay [4]; against Histamine H2 receptor; in assay [5]) was “Not Active” each time. The IC50 entry in assay [6] is listed as “Not Active”. The Ki entry in assay [2], in assay [3] and in assay [5] was “Not Active” throughout.
For the molecule `O=[As][O-].[Na+]` [SODIUM ARSENITE], the IC50 entry (in assay [1]; in assay [2]; in assay [3]; in assay [4]; against Histamine H2 receptor; in assay [5]) was “Not Active” in each case. For the same molecule, the IC50 entry in assay [6] is recorded as “Not Active”. Also, the Ki result in assay [2], in assay [3] and in assay [5] was “Not Active” each time.
As to `Cc1cc2c(s1)Nc1ccccc1N=C2N1CCN(C)CC1` [OLANZAPINE], the IC50 entry (in assay [1]; in assay [4]; at Histamine H2 receptor; in assay [6]) was “Not Active” each time.
For the molecule `Cc1ccc(Cl)c(Nc2ccccc2C(=O)O)c1Cl` [MECLOFENAMIC ACID], the IC50 entry (in assay [1]; in assay [2]; in assay [3]; in assay [4]; against Histamine H2 receptor; in assay [5]) was “Not Active” each time. Also, the IC50 entry in assay [6] is reported as “Not Active”. Besides, the Ki result in assay [2], in assay [3] and in assay [5] was “Not Active” in each case.
Consider `CCOC(=O)C1=C(C)NC(C)=C(C(=O)OCC)C1c1ccccc1/C=C/C(=O)OC(C)(C)C` [LACIDIPINE], for which the IC50 entry (in assay [1]; in assay [2]; in assay [3]; in assay [4]; against Histamine H2 receptor; in assay [5]) was “Not Active” in each case. Besides, the IC50 entry in assay [6] is “Not Active”. For the same molecule, the Ki result in assay [2], in assay [3] and in assay [5] was “Not Active” each time.
As to `CNCCCC12CCC(c3ccccc31)c1ccccc12` [MAPROTILINE], the IC50 entry in assay [1], in assay [4] and in assay [6] was “Not Active” in each case. The pIC50 at Histamine H2 receptor (read-out: IC50) was 6.40. Also, the pKi on Histamine H2 receptor (read-out: Ki) was 6.41.
For the molecule `O=C(c1ccccc1)c1ccc2n1CCC2C(=O)O` (configuration not stated) [KETOROLAC], the IC50 entry (in assay [1]; in assay [2]; in assay [3]; in assay [4]; at Histamine H2 receptor; in assay [5]) was “Not Active” in each case. Besides, the IC50 result in assay [6] was “Not Active”. In addition, the Ki entry in assay [2], in assay [3] and in assay [5] was “Not Active” in each case.
On to `CCN(CC)N=O` [N-NITROSODIETHYLAMINE], for which the IC50 entry (in assay [1]; in assay [2]; in assay [3]; in assay [4]; at Histamine H2 receptor; in assay [5]) was “Not Active” in each case. Further, the IC50 result in assay [6] is reported as “Not Active”. Besides, the Ki result in assay [2], in assay [3] and in assay [5] was “Not Active” throughout.
For `CN(C)CCC=C1c2ccccc2COc2ccccc21` [DOXEPIN], the IC50 result in assay [1], in assay [4] and in assay [6] was “Not Active” each time.
